PMC5317004 (Scientific Reports, 2017)

Experiments:
[1] = test system: homomeric GluClβR; parameters: method as in PMID 7935817; settings: Xenopus oocytes; read-out: Glu EC50; cited from earlier work
[2] = test system: T1, homomeric GluClβR; experiment: Effect of IVM on Glu-elicited currents of homomeric GluClβ receptors in CHO cells (whole-cell patch clamp); assay type: cell-based, C. elegans; settings: 100 mM Glu, four cells, mean ± SEM
T1 construct: homomeric receptors assembled from the full-length C. elegans GluClβ subunit; expressed in transfected cells; host or cells: CHO-K1 cells, transient transfection, pcDNA3.1
Description: Figure 9 Effect of IVM on homomeric GluClβ receptors. (A) Representative current traces obtained by the indicated application protocol. Glu (100 mM) was applied for either 350 ms to obtain peak IP0 at −60 mV, or 600 ms to obtain peaks IP1, IP2 and IP3 at +60 mV. Note that the responses at both membrane voltages, −60 and +60 mV, start to desensitize appreciably before the end of Glu application. IVM (2 μM) was applied for 10 seconds. Asterisk indicates a 25-sec-long wash between the second and third Glu applications. (B) Current-voltage (I/V) relations obtained in a different cell than in A upon the application of Glu (100 mM) over a voltage ramp lasting 200 ms. […] Current ratios were extracted from experiments performed as shown in (A). Mean ± SEM of four cells are presented. Paired, two-tailed Student’s t-tests indicate that **0.001 < P < 0.01 and ***P < 0.0002.
Supplementary Information
Trapping of ivermectin by a pentameric ligand-gated ion channel upon open-to-cl ose d i someri zati on N. Degani-Katzav, M. Klein, M. Har-Even, R. Gortler, R. Tobi and Y. Paas*
Supplementary Materials and Methods […]
The electrode resistance was 6-10 MΩ when filled with the pipette solution. […] The currents w ere measured with an Axopatch 200B patch-clamp amplifier (Molecular Devices, Sunnyvale, CA) and a Digidata 1440A interface (Molecular Devices). […]

[3] = test system: chimeric α7-GluClβR; experiment: IVM added after activation by ACh: kinetics and extent of current decline (whole-cell patch clamp); assay type: cell-based, chick nAChR α7 / C. elegans GluClβ
Description: Following a further wash (for a minute), the same cell was challenged again with a 5-μM-IVM solution (in 0.01% DMSO; red bar, arrow and trace). Recordings were performed at −60 mV. (B) Time constant of current decline (τd). Values of τd were determined by exponential fits to the declining phase of the currents using Eq. 3. […] Error bars correspond to SEM of N = 6 and N = 5 cells for recordings at −60 mV and −20 mV, respectively. Paired, two-tailed Student’s t-tests indicate that for not significant (“ns”) P > 0.3, and ** 0.001 < P < 0.005.
Figure 8 The inhibition of ACh-elicited currents by addition of IVM is irreversible. […] (B) Representative currents for the same experiment as in A, but with the exception of IVM (0.5 μM) addition after the ACh-elicited current reached to its peak (IP1). Inset, magnification of the indicated segment of the current trace. In both panels A and B, black bars above the current traces indicate ACh or IVM applications. […] Error bars correspond to SEM. Unpaired, two-tailed Student’s t-tests indicate *** P < 0.0001.
The declining phase of the currents was fitted with an exponential time course to give the time constant of current decline by using equation 3, […]
I is the current, IP is the peak of the current, IS is the steady state current, t is the time, and τ is the time constant of current decline. […]
Supplementary Materials and Methods
The structural mo del of the chi meric α7-GluClβR was built based on th e methodologies published previously1,2, and the sequence of the chimeric subunit is presented in […]
DNA construct and preparation of cells for electrophysiological experiments The cDNA encoding the α7-GluClβ chimeric subunit was generated as described previously3, and was cloned into a pcDNA3.1 vector.
Chinese hamster ovary cells (CHO-K1, ATCC via Biological Industries Israel, Beit Haemek Ltd.) were cultured as performed previously2 in Dulbecco 's Modified E agle Med iu m (DMEM) containing 10% fetal calf serum (Biological Industries Israel Beit Haemek Ltd.), 2 mM glutamax, 100 Units/ml penicillin G and 100 μg/ml streptomycin, and grown in 5% CO2 at 37°C under 90-95% hu midity . CHO cells were seeded on glass coverslips (13-mm diameter) placed in a 24-multiwell plate. For the expression of the α7-GluClβR, cells were transiently transfected with the pcDNA3.1 plasmid containing the receptor’s ORF (200-600 ng per well) using transit-LT1 transfection reagent (Mirus, USA), according to the manufacturer’s protocol. pIRES-CD8 plas mid (200 ng per well) was also added to enable visualization of the ex pressing cells by beads coated with anti-CD8 antibodies (Invitrogen). For the expression of GluClβ ho mo mers, we used the pcDNA3.1 plas mid containing the GluClβ-subunit ORF (600-1000 ng per well), pIRES-CD8 plas mid (200 ng per well) and th e X-tremeGENE HP DNA Transfection Reagent (Roche Life Science). Recordings were performed 48-72 hours following transfection.
Whole-cell patch clamp recordings
Recordings were performed in the aforementioned CHO cells, as previously described1,2. Whole-cell patch clamp experiments were performed with normal external solution (NES) contained (in millimolar): 140 NaCl, 2.8 KCl, 2 CaCl2, 2 MgCl2, 10 glucose and 10 HEPES, adjusted to pH 7.35 with NaOH (310 mOsM). The pipette solution contained […]
(in millimolar): 130 KCl, 4 MgCl2, 4 Na2ATP, 1 EGTA and 10 HEPES, adjusted to pH 7.35 with KOH (290 mOsM). The osmolarity of these solutions was maintained by adding sucrose.
The electrode resistance was 6-10 MΩ when filled with the pipette solution. External solutions were applied onto the cell by using the VC-77SP fast-step system (Warner Instruments, CT, USA) combined with N2 pressure of 3-4 psi to produce laminar flow of the external solution onto the patched cell. All measurements were performed at 25 °C. The currents w ere measured with an Axopatch 200B patch-clamp amplifier (Molecular Devices, Sunnyvale, CA) and a Digidata 1440A interface (Molecular Devices). […]

[4] = biological target: chimeric α7-GluClβR (Gallus gallus / Caenorhabditis elegans, UniProt P22770, M226I/T225I); experiment: ACh dose-response, whole-cell patch clamp in CHO cells expressing the chimeric receptor; assay type: cell-based, chick nAChR α7 / C. elegans GluClβ; settings: −60 mV
Chain of chimeric α7-GluClβR (Gallus gallus / Caenorhabditis elegans, UniProt P22770, M226I/T225I) (P22770 24-230 T225I/M226I): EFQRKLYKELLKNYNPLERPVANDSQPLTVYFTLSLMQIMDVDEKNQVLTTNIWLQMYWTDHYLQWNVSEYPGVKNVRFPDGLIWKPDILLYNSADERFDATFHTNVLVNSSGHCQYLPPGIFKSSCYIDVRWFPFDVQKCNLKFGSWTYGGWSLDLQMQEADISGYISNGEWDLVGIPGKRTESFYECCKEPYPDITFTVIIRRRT
Chain of chimeric α7-GluClβR (Gallus gallus / Caenorhabditis elegans, UniProt P22770, M226I/T225I) (Q17328 245-434, further chain): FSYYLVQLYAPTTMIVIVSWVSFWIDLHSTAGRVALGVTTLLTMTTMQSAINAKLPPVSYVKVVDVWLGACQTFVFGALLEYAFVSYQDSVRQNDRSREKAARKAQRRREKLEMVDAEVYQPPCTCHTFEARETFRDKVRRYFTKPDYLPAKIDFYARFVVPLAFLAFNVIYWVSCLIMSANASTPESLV

Row | Compound | EC50 [1] | I+60mV/I−60mV of Glu-elicited responses [2] | current remaining at end of initial application, percent IS/IP1 ([3]; 30 μM ACh alone for 9.6 sec, N = 10) | τd1, time constant of current decline ([3]; 30 μM ACh alone, 9.6 sec, N = 10) | current remaining at end of application, percent of the peak amplitude ([3]; 350 μM ACh alone for 5.5 sec, N = 5) | time between the start of application and the onset of effect ([3]; six experiments as in Fig. 5A, 350 μM ACh, 5 μM IVM) | Hill coefficient (ACh dose-response) [4]
1 | N[C@@H](CCC(=O)O)C(=O)O [Glu, glutamate] | 380 µM | 2.8 ± 0.2 |  |  |  |  | 
2 | CC(=O)OCC[N+](C)(C)C [ACh, acetylcholine] |  |  | 35 ± 4% | 4268 ± 224 ms | 31 ± 8.6% | 67 ± 7 milliseconds | 2.55 ± 0.3
